Test results published in US10004715B2, “Entacapone for prevention and treatment of atherosclerosis” (National Institute of Biological Sciences, Beijing, priority 2012, dated 2018).

Tests used:
FTO protein = FTO protein (Homo sapiens, UniProt Q9C0B1); assay: FTO demethylation assay (enzymatic inhibition); type: biochemical; settings: substrate 0.5 μM, enzyme 0.1 μM; ssDNA with N6-mA; HPLC-MS/MS; read-out: IC50 against FTO
Method: We measured the compound's inhibition activity in the demethylation reaction catalyzed by FTO. The assay was performed in 100 μl of reaction system containing 50 mM HEPES buffer (pH=7.0), 100 μM of a-KG, 100 μM of (NH4)2Fe(SO4)2, 1 mM of L-ascorbic acid, 50 ng/ml of BSA, 0.5 μM of ssDNA with N^6-mA (5′-ATTGTCA(m^6A)CAGCAGA-3′), and 0.1 μM of FTO protein. The reaction system was incubated at 37° C. for 2 h and stopped by heating at 95° C. for […] ssDNA was digested by nuclease P1 and alkaline phosphatase. The concentrations of N^6-mA and A were analyzed by HPLC-MS/MS. When concentration of substrate and enzyme are 0.5 μM and 0.1 μM, respectively, the measured IC50 value of entacapone against FTO is ˜9 μM (FIG. 2).

Huh-7 cell line = assay: Cellular triglyceride synthesis inhibition; type: cell-based; settings: Homo sapiens, dyeing method
Excerpt: FIG. 3. The dose-dependent inhibition activity of entacapone on triglyceride synthesis in Huh-7 cell line. The X-axis is the compound concentration. The Y-axis is “read-out” of the triglyceride concentration using dyeing method.

[1] = test system: male wistar rats fed with high-fat diet; assay: In vivo anti-obesity efficacy in rats fed high-fat diet; set-up: species or system rat; settings: 85.6 mg/day by gavage
Method: Total of 23 male wistar rats (6 weeks) were fed with high-fat diet (45% fat, OpenSource Diets D12451), and entacapone (85.6 mg/day) was administered to 12 randomly selected rats by gavage. After 8 weeks, the mean body weight of drug treatment group was about 11% less than that of control group (*p-value<0.05) (FIG. 4).

[2] = test system: Ldlr−/− mice fed western style diet; assay: Atherosclerosis model: Ldlr-deficient mice; type: in vivo, mouse; settings: 300 mg/kg orally blended with diet, after 8 weeks; Oil red O staining; p-value=0.08
Method: Atherosclerosis Model: Ldlr-Deficient Mice. We measured entacapone's anti-atherosclerosis efficacy using Ldlr^−/− mice fed western style diet (20% fat, 0.15% cholesterol), entacapone (300 mg/kg) was orally administered by blending with diet. After 8 weeks, the mean lesion area in aortic sinuses of drug treatment group was 28% less than that of control group (p-value=0.08) (FIG. 8). Therefore, entacapone reduces atherosclerosis symptom, comparing with the control.

[3] = test system: obese male C57BL/6 mice fed with high-fat diet; assay: In vivo anti-obesity efficacy in obese mice; set-up: species or system mouse; settings: 300 mg/kg orally blended with diet, after 13 weeks; p<0.05
Method: Male C57BL/6 mice were fed with high-fat diet (45% fat, OpenSource Diets D12451) for 8 weeks. Then obese mice with body weight 20% larger than that of mice fed with normal diet (20 mice) were selected for experiments. Entacapone (300 mg/kg) was orally administered to 10 randomly selected obese mice by blending with diet. After 13 weeks, the mean body weight gain of drug treatment group was about 11% less than that of control group (*p-value<0.05) (FIG. 9).

Chain of FTO protein (Q9C0B1 whole entry): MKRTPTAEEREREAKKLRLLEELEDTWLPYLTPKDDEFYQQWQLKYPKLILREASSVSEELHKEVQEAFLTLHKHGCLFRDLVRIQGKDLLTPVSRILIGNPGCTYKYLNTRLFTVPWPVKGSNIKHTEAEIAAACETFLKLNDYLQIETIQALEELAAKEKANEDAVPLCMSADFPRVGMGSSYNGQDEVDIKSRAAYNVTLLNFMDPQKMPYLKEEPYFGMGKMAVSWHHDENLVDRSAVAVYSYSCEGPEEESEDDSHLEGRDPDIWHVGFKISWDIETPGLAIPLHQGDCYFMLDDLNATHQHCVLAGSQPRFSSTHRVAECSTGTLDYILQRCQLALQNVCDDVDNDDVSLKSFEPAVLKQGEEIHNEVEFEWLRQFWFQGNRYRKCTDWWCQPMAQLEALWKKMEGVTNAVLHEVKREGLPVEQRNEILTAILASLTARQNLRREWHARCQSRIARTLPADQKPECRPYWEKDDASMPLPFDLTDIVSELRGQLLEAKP

SMILES: CCN(CC)C(=O)/C(C#N)=C/c1cc(O)c(O)c([N+](=O)[O-])c1 [entacapone, (2E)-2-cyano-3-(3,4-dihydroxy-5-nitrophenyl)-N,N-diethylprop-2-enamide]
- IC50 (FTO protein): ~9 µM
- IC50 (Huh-7 cell line): ~15 µM
- mean body weight less than that of control group ([1]; after 8 weeks, high-fat diet, p<0.05): about 11%
- decrease of LDL-c in serum compared to control group ([1]; after 8 weeks, p<0.005): about 40%
- adipose tissue change vs control (H&E staining) ([1]; high-fat diet): reduced size of adipose cells
- body-weight-normalized food intake vs control group ([1]; high-fat diet): no difference
- hepatic tissue change vs control (H&E staining) ([1]; high-fat diet): reduced level of liver steatosis
- Difference in serum LDL-cholesterol (drug treatment vs control group) ([1]; rat serum, p-value 0.0005): −41.2%
- Difference in serum Creatine kinase (drug treatment vs control group) ([1]; rat serum, p-value 0.2311): −17.6%
- Difference in serum Glutamic-pyruvic transaminase (drug treatment vs control group) ([1]; rat serum, p-value 0.4962): −5.5%
- Difference in serum Bilirubin (drug treatment vs control group) ([1]; rat serum, p-value 0.5814): −10.1%
- Difference in serum Cholesterol (drug treatment vs control group) ([1]; rat serum, p-value 0.6455): −3.3%
- Difference in serum Triglyceride (drug treatment vs control group) ([1]; rat serum, p-value 0.8023): −3.8%
- Difference in serum Albumin ratio (drug treatment vs control group) ([1]; rat serum, p-value 0.9473): −0.063%
- Difference in serum HDL-cholesterol (drug treatment vs control group) ([1]; rat serum, p-value 0.9972): −0.026%
- mean lesion area in aortic sinuses less than that of control group [2]: 28%
- mean body weight gain less than that of control group [3]: about 11%
